Results: patent publication US5114918A, “Endothelin antagonistic cyclic pentapeptides” (Banyu Pharmaceutical Co., Ltd., priority 1989, dated 1992)
Read-outs that look alike come from different tables or passages of the source. Square brackets hold non-standard residues; d marks the D form. Peptide text beside a SMILES is read from it. * marks the point of attachment. Cya = N[C@@H](CS(=O)(=O)O)C(=O)O; dCya = N[C@H](CS(=O)(=O)O)C(=O)O; Met(O) = CS(=O)CC[C@H](N)C(=O)O; dPen = CC(C)(S)[C@@H](N)C(=O)O; Pip = O=C(O)[C@@H]1CCCCN1; Ac6c = NC1(C(=O)O)CCCCC1; Nle = CCCC[C@H](N)C(=O)O; Nva = CCC[C@H](N)C(=O)O; Aib = CC(C)(N)C(=O)O; Sar = CNCC(=O)O; For = O=C*

Target: T1, endothelin receptor (membrane of smooth muscle tissue of porcine aorta) (Sus scrofa, UniProt Q29010)
T1 construct: from tissue; host or cells: smooth muscle tissue of porcine aorta (membrane fraction)
T1 sequence (Q29010 21-427): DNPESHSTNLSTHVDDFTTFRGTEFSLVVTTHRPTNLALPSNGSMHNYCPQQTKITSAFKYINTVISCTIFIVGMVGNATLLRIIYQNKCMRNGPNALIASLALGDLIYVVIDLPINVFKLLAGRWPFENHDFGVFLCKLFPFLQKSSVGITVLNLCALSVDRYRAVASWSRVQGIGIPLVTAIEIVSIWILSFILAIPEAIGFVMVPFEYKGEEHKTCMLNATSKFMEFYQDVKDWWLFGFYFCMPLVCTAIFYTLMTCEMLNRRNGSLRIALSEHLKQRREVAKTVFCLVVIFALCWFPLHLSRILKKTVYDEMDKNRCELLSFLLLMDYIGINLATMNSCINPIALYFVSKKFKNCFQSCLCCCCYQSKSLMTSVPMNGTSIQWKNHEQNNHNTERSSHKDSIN
Experiment: Endothelin binding inhibition test (125I-endothelin-1, porcine aorta smooth muscle membrane)
Conditions: read-out: 125I-endothelin-1 binding inhibition, Inhibition (%)
Protocol: Endothelin binding inhibition test
The smooth muscle tissue of porcine aorta was homogenized in a buffer solution of 10 mM MOPS, pH 7.4, at 4° C. by a polytron. To the homogenate, sucrose was added to a concentration of 20%, and the mixture was centrifuged at 1,000×g for 15 minutes, and the supernatant was further centrifuged at 10,000×g for 15 minutes. The supernatant thereof was further centrifuged at 90,000×g for 40 minutes. The membrane precipitate thereby obtained was suspended in a buffer solution of 5 mM HEPES/Tris, pH 7.4, at a concentration of 25 mg/ml.
Then, 16 μl of this membrane suspension was added to 340 μl of 50 mM Tris/HCl buffer, pH 7.4, containing 10 μM calcium chloride, 10 μM magnesium chloride, 0.1 mM PMSF, 1 μM pepstatin A, 2 μM leupeptin, 1 mM 1,10-phenanthroline and 0.1% bovine serum albumin. To this suspension, 4 μl of (A) endothelin-1 (for nonspecific binding: 0.2 μM as the final concentration), (B) buffer solution A (for total control binding), or (C) a test compound (1.1 μM as the final concentration), was added. Further, to each suspension, 40 μl of ^125 I-endothelin-1 (12000-18000 cpm) was added. These mixtures were incubated at 25° C for 4 hours, then subjected to filtration on a glass filter GF/C and then washed with 5 mM HEPES/Tris, pH 7.4, containing 0.3% bovine serum albumin. Then, the radioactivity trapped by the glass filter was measured, and the ^125 I-endothelin-1 binding inhibition D (%) at 1.1 μM of the test compound was determined by the following equation. [formula] Each test was performed in triplicate.

[1] = 1.1 μM of the test compound, porcine aorta smooth muscle membrane, 25° C, 4 hours

| SMILES | inhibition at 1.1 µM [1] [%] | inhibition at 1.1 µM [%] |
| --- | --- | --- |
| CCCC[C@@H]1NC(=O)[C@@H](C(C)C)NC(=O)[C@H](CO)NC(=O)[C@@H](CC(=O)O)NC(=O)[C@@H](Cc2c[nH]c3ccccc23)NC1=O [Example 36, cyclo(-DTrp-DAsp-Ser-DVal-Nle-)] (cyclo([Nle][dW][dD]S[dV])) | 67 |  |
| CSCC[C@@H]1NC(=O)[C@@H](C(C)C)NC(=O)[C@H](CO)NC(=O)[C@@H](CC(=O)O)NC(=O)[C@@H](Cc2c[nH]c3ccccc23)NC1=O [Example 37, cyclo(-DTrp-DAsp-Ser-DVal-Met-)] (cyclo(M[dW][dD]S[dV])) | 38 |  |
| CC(C)[C@H]1NC(=O)[C@H](CC(=O)O)NC(=O)[C@@H](CC(=O)O)NC(=O)[C@@H](Cc2c[nH]c3ccccc23)NC(=O)[C@H](C)NC1=O [Example 38, cyclo(-DTrp-DAsp-Asp-DVal-Ala-)] (cyclo(A[dW][dD]D[dV])) | 21 |  |
| CC(C)[C@H]1NC(=O)[C@H](C)NC(=O)[C@@H](CC(=O)O)NC(=O)[C@@H](Cc2c[nH]c3ccccc23)NC(=O)[C@@H]2CCCN2C1=O [Example 39, cyclo(-DTrp-DAsp-Ala-DVal-Pro-)] (cyclo(A[dV]P[dW][dD])) | 18 |  |
| CC[C@H](C)[C@@H]1NC(=O)[C@@H](C(C)C)NC(=O)[C@@H]2CCCN2C(=O)[C@@H](CC(=O)O)NC(=O)[C@@H](Cc2c[nH]c3ccccc23)NC1=O [Example 40, cyclo(-DTrp-DAsp-Pro-DVal-Ile-)] (cyclo(I[dW][dD]P[dV])) | 66 |  |
| CCCC[C@@H]1NC(=O)[C@@H](C(C)C)NC(=O)[C@@H]2CCCN2C(=O)[C@@H](CC(=O)O)NC(=O)[C@@H](Cc2c[nH]c3ccccc23)NC1=O [Example 41, cyclo(-DTrp-DAsp-Pro-DVal-Nle-)] (cyclo([Nle][dW][dD]P[dV])) | 83 |  |
| CC(C)C[C@@H]1NC(=O)[C@@H](C(C)C)NC(=O)[C@H](CS(=O)(=O)O)NC(=O)[C@@H](CS(=O)(=O)O)NC(=O)[C@@H](Cc2c[nH]c3ccccc23)NC1=O [Example 42, cyclo(-DTrp-DCys(O3 Na)-Cys(O3 Na)-DVal-Leu-)] (cyclo([Cya][dV]L[dW][dCya])) |  | 79 |
| CC(C)C[C@@H]1NC(=O)[C@@H](C(C)C)NC(=O)[C@H](C(C)C)NC(=O)[C@@H](CC(=O)O)NC(=O)[C@@H](Cc2c[nH]c3ccccc23)NC1=O [Example 44, cyclo(-DTrp-DAsp-Val-DVal-Leu-)] (cyclo(L[dW][dD]V[dV])) | 56 |  |
| CCC[C@@H]1NC(=O)[C@@H](C(C)C)NC(=O)[C@@H]2CCCN2C(=O)[C@@H](CC(=O)O)NC(=O)[C@@H](Cc2c[nH]c3ccccc23)NC1=O [Example 45, cyclo(-DTrp-DAsp-Pro-DVal-Nva-)] (cyclo([Nva][dW][dD]P[dV])) | 85 |  |
| CCCC[C@@H]1NC(=O)[C@@H](CC(=O)O)NC(=O)[C@@H](Cc2c[nH]c3ccccc23)NC(=O)[C@H](CC(C)C)NC(=O)[C@@H](C(C)C)NC1=O [Example 46, cyclo(-DTrp-DAsp-Nle-DVal-Leu-)] (cyclo(L[dW][dD][Nle][dV])) | 75 |  |
| CC(C)C[C@@H]1NC(=O)[C@@H](C(C)C)NC(=O)[C@@H]2CCCCN2C(=O)[C@@H](CC(=O)O)NC(=O)[C@@H](Cc2c[nH]c3ccccc23)NC1=O [Example 47, cyclo(-DTrp-DAsp-Pip-DVal-Leu-)] (cyclo(L[dW][dD][Pip][dV])) | 89 |  |
| CC(C)C[C@@H]1NC(=O)[C@@H](C(C)C)NC(=O)[C@H](Cc2ccccc2)NC(=O)[C@@H](CC(=O)O)NC(=O)[C@@H](Cc2c[nH]c3ccccc23)NC1=O [Example 48, cyclo(-DTrp-DAsp-Phe-DVal-Leu-)] (cyclo(F[dV]L[dW][dD])) | 71 |  |
| CC(C)C[C@@H]1NC(=O)[C@@H](C(C)C)NC(=O)[C@H](CCCCN)NC(=O)[C@@H](CS(=O)(=O)O)NC(=O)[C@@H](Cc2c[nH]c3ccccc23)NC1=O [Example 50, cyclo(-DTrp-nCys(O3 H)-Lys-DVal-Leu-)] (cyclo(K[dV]L[dW][dCya])) | 57 |  |
| CC(C)C[C@@H]1NC(=O)[C@@H](C(C)C)NC(=O)[C@@H]2CCCN2C(=O)[C@@H](CC(=O)O)NC(=O)[C@@H](Cc2cn(C=O)c3ccccc23)NC1=O [Example 51, cyclo(-DTrp(CHO)-DAsp-Pro-DVal-Leu-)] (cyclo(L[dW](For)[dD]P[dV])) | 84 |  |
| CCCC[C@@H]1NC(=O)[C@@H](C(C)C)NC(=O)[C@H](CO)NC(=O)[C@@H](CC(=O)O)NC(=O)[C@@H](Cc2cn(C=O)c3ccccc23)NC1=O [Example 54, cyclo(-DTrp(CHO)-DAsp-Ser-DVal-Nle-)] (cyclo([Nle][dW](For)[dD]S[dV])) | 65 |  |
| CSCC[C@@H]1NC(=O)[C@@H](CC(=O)O)NC(=O)[C@@H](Cc2cn(C=O)c3ccccc23)NC(=O)[C@H](CC(C)C)NC(=O)[C@@H](C(C)C)NC1=O [Example 55, cyclo(-DTrp(CHO)-DAsp-Met-DVal-Leu-)] (cyclo(L[dW](For)[dD]M[dV])) | 81 |  |
| CCC[C@@H]1NC(=O)[C@@H](C(C)C)NC(=O)[C@@H]2CCCN2C(=O)[C@@H](CC(=O)O)NC(=O)[C@@H](Cc2cn(C=O)c3ccccc23)NC1=O [Example 56, cyclo(-DTrp(CHO)-DAsp-Pro-DVal-Nva-)] (cyclo([Nva][dW](For)[dD]P[dV])) | 84 |  |
| CC(C)C[C@@H]1NC(=O)[C@@H](C(C)C)NC(=O)[C@H](CCCCNC=O)NC(=O)[C@@H](CC(=O)O)NC(=O)[C@@H](Cc2c[nH]c3ccccc23)NC1=O [Example 57, cyclo(-DTrp-DAsp-Lys(CHO)-DVal-Leu-)] (cyclo(K(For)[dV]L[dW][dD])) | 65 |  |
| CC(C)C[C@@H]1NC(=O)[C@@H](C(C)C)NC(=O)[C@H](CC[S+](C)[O-])NC(=O)[C@@H](CC(=O)O)NC(=O)[C@@H](Cc2cn(C=O)c3ccccc23)NC1=O (stereo partly drawn) [Example 58, cyclo(-DTrp(CHO)-DAsp-Met(O)-DVal-Leu-)] (cyclo(L[dW](For)[dD][Met(O)][dV])) | 84 |  |
| CC(C)C[C@@H]1NC(=O)[C@@H](C(C)(C)S)NC(=O)[C@@H]2CCCN2C(=O)[C@@H](CC(=O)O)NC(=O)[C@@H](Cc2c[nH]c3ccccc23)NC1=O [Example 60, cyclo(-DTrp-DAsp-Pro-DPen-Leu-)] (cyclo(L[dW][dD]P[dPen])) | 79 |  |
| CC(C)C[C@@H]1NC(=O)[C@@H](C(C)C)NC(=O)C(C)(C)NC(=O)[C@@H](CC(=O)O)NC(=O)[C@@H](Cc2c[nH]c3ccccc23)NC1=O [Example 61, cyclo(-DTrp-DAsp-Aib-DVal-Leu-)] (cyclo([Aib][dV]L[dW][dD])) | 66 |  |
| CC(C)C[C@@H]1NC(=O)C(C)(C)NC(=O)[C@@H]2CCCN2C(=O)[C@@H](CC(=O)O)NC(=O)[C@@H](Cc2c[nH]c3ccccc23)NC1=O [Example 62, cyclo(-DTrp-nAsp-Pro-Aib-Leu-)] (cyclo([Aib]L[dW][dD]P)) | 60 |  |
| CC(C)C[C@@H]1NC(=O)C2(CCCCC2)NC(=O)[C@@H]2CCCN2C(=O)[C@@H](CC(=O)O)NC(=O)[C@@H](Cc2c[nH]c3ccccc23)NC1=O [Example 64, cyclo(-DTrp-DAsp-Pro-Ac6 c-Leu-)] (cyclo([Ac6c]L[dW][dD]P)) | 83 |  |
| CC(C)C[C@@H]1NC(=O)[C@@H](C(C)C)NC(=O)CN(C)C(=O)[C@@H](CC(=O)O)NC(=O)[C@@H](Cc2c[nH]c3ccccc23)NC1=O [Example 65, cyclo(-DTrp-DAsp-Sar-DVal-Leu-)] (cyclo(L[dW][dD][Sar][dV])) | 85 |  |
